Data from patent US20240401146A1, “METHODS FOR PREDICTING AND IMPROVING THE EFFICACY OF MCL-1 INHIBITOR THERAPY” (INSTITUT NATIONAL DE LA SANTÉ ET DE LA RECHERCHE MÉDICALE, priority 2021, published 2024).
Where two headings read alike, the source gives them in different places.

Columns and labels:
[1] = tested on: SUDHL-4 cells (BTG1 KO, BTG1 WT); conditions: SUDHL-4 BTG1 KO versus BTG1 WT; 72 h exposure; 0 or 50 nM; FIG. 3C
Description: (§1) TMD8 and SUDHL-4 were grown in Roswell Park Memorial Institute medium, GlutaMAX Supplement ([…], Thermofisher), supplemented with 10% FBS, 1% penicillin G/streptomycin. Cells were grown in incubators at 37 C, in a 5% CO2 atmosphere.
(§2) TMD8 and SUDHL-4 cells expressing cas9 were generated by transduction with lentiV-Cas9-blast virus (Addgene #125592, Massachusetts, USA), and selected with 2.5 μg/ml blasticidin for 7 days. […] Cells were selected with puromycin for 7 days, and GFP expression was evaluated with flow cytometry. BTG1 inactivation was validated by Western Blotting after 1 week. BTG1 rescue cell were derived from TMD8 BTG1 KO cells infected with murine BTG1 cDNA (100% protein homology with human) in a mcherry-HIV-based virus. GFP and mcherry positive cells were sorted on a FACS ARIA™ cell sorter (BD biosciences, San Jose, CA).
(§3) The high affinity MCL-1 specific inhibitor S63845 (Kotschy et al., 2016) was purchased from Selleck Chemical (München, Germany). For in vitro study, it was dissolved in DMSO at a concentration of lmmol/L. DMSO was also used as a vehicle control in the in vitro study. For cell viability assessment, 100 000 cells were seeded in 24 well plate and incubated for 72 h with either S63845 or DMSO. Culture medium was used for further dilutions (typically 5 and 50 nM). For cell viability assessment, cells were stained with Annexin V-APC and propidium iodide, analyzed on a FACS LSRII™ (BD biosciences, San Jose, CA).

[2] = tested on: TMD8 cells (BTG1 KO, WT, rescue, mutated rescues); conditions: 72 h exposure, 0 or 50 nM, FIG. 3B
Description: as §1, §2, §3

## Cc1c(-c2c(-c3ccc(F)o3)sc3ncnc(O[C@H](Cc4ccccc4OCc4ccnn4CC(F)(F)F)C(=O)O)c23)ccc(OCCN2CCN(C)CC2)c1Cl [S63845]
[1]
  Proportion of apoptotic cells (Annexin V staining): confirmed the link between BTG1 inactivation and sensitivity to MCL-1
[2]; TMD8 BTG1 KO rescued with BTG1 WT
  Increased sensitivity to MCL-1 inhibitor (proportion of apoptotic cells, Annexin V staining): abolished by the expression of BTG1 WT
[2]; TMD8 BTG1 KO rescued with mutated BTG1 (L26P, G66D or I115V)
  Increased sensitivity to MCL-1 inhibitor (proportion of apoptotic cells, Annexin V staining): not by the expression of mutated BTG1
[2]; TMD8 BTG1 KO versus BTG1 WT
  Proportion of apoptotic cells (Annexin V staining): induces significantly more apoptosis
